Experimental data: patent US6114334A, “Piperazine derivatives as therapeutic agents” (Knoll Aktiengesellschaft, priority 1995, dated 2000)

What was measured:
5-HT1A receptors = biological target: T1, 5-HT1A receptors (Rattus norvegicus, UniProt P19327); test: inhibition of [3H]8-OH-DPAT binding to 5-HT1A receptors in vitro; parameters: species or system rat (male Sprague-Dawley, hippocampal tissue); details: rat hippocampus; for Ki: [3H]8-OH-DPAT 2 nM, 25° C., 30 min
T1 sequence (P19327 1-422): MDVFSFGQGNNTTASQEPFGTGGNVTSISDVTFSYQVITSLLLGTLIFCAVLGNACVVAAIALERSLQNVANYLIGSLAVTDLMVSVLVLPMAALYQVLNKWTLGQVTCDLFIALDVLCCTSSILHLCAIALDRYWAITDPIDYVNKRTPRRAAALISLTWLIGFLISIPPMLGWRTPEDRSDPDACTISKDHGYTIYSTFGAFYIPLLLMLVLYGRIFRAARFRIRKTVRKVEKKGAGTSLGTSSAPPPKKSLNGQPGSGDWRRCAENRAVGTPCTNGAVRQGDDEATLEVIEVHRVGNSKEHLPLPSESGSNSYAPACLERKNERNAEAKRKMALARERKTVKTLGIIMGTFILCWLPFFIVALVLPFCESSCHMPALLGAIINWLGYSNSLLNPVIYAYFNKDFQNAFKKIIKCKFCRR

α2A-adrenoceptors = biological target: T2, α2A-adrenoceptors (Homo sapiens, UniProt P08913); test: inhibition of tritiated RX 821002 binding to α2A-adrenoceptors in vitro; parameters: species or system human (cerebral cortex post-mortem); details: human cerebral cortex; for inhibition at 1 µM: 10^-6 M, [3H]RX 821002, read-out: % displacement at 10^-6 M, α2A
T2 construct: Human cerebral cortex obtained at post-mortem; from tissue; host or cells: human cerebral cortex, post-mortem
T2 sequence (P08913 1-465): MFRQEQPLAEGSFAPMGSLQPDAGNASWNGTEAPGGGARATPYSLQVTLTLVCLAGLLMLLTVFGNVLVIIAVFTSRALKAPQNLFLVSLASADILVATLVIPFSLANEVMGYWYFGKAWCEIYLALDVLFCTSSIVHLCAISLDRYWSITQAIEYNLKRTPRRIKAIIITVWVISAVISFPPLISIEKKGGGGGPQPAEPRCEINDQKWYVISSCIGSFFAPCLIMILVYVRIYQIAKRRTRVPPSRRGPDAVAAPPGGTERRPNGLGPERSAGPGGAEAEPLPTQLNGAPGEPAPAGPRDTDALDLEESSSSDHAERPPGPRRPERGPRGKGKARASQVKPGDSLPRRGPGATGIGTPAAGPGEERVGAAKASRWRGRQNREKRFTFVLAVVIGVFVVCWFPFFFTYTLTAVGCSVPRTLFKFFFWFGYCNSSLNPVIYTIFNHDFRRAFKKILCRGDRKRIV
Procedure: Human cerebral cortex obtained at post-mortem was homogenised in ice-cold 0.25M sucrose (1:30 w/v) and centrifuged at 1,000 g at 4° C. for 12 minutes. The supernatant was stored on ice and the pellet was rehomogenised in 0.25M sucrose (1:15 w/v) and centrifuged at 850 g at 4° C. for 12 minutes. Combined supernatants were diluted with 5 mM Tris-HCl (pH 7.5) containing 5 mM ethylenediamine tetraacetic acid (EDTA), readjusted to pH 7.5 (at 25° C.) with 1M sodium hydroxide to 1:80 w/v, and centrifuged at 11,000 g at 4° C. for 10 minutes. The resulting pellet was resuspended in 50 mM Tris-HCl (pH 7.5) containing 5.68 mM L-ascorbic acid and 0.5 mM EDTA, readjusted to pH 7.5 (at 25° C.) with 1M sodium hydroxide to 1:80 w/v, and centrifuged at 11,000 g for 10 minutes. The pellet was stored at -80° C. On the day of the assay the pellet was thawed, resuspended in 50 mM Tris-HCl (pH 7.5) containing 5.68 mM L-ascorbic acid and 5 mM EDTA to 1:80 w/v and centrifuged at 11,000 g for 10 minutes. The final pellet was resuspended in 50 mM Tris-HCl (pH 7.5) containing 5.68 mM L-ascorbic acid and 5 mM EDTA (equivalent to 25 mg wet weight of tissue/ml).
Aliquots (400 μl; equivalent to 10 mg wet weight of tissue/tube) of this suspension were added to tubes containing the ligand (50 μl; 0.2 nM) and distilled water (50 μl; total binding) or phentolamine (50 μl; 50 μM; non-specific binding) or test compound (50 μl; at a single concentration of 10^-6 M or at 10 concentrations ranging from 10^-11 -10^-3 M). The ligand was tritiated RX 821002 (2-(2-methoxy-1,4-[6,7(n)-^3 H]benzodioxan-2-yl)-2-imidazoline) and the mixture was incubated at 0° C. for 75 minutes before the incubation was terminated by rapid filtration.
The filters were washed with ice-cold Tris-HCl buffer and dried. The filters were punched out into vials, scintillation fluid added and radioactivity determined by liquid scintillation counting. The percentage displacement of specific binding of the tritiated ligand was calculated for the single concentration (10^-6 M) of test compound. Displacement curves were then produced for those compounds which displaced ≥50% of specific binding of the tritiated ligand at 10^-6 M using a range of concentrations of the compound. The concentration which gave 50% inhibition of specific binding (IC50) was obtained from the curve. The inhibition coefficient Ki was then calculated using the formula [formula] in which [ligand] is the concentration of the tritiated ligand used and KD is the equilibrium dissociation constant for the ligand.

α2D-adrenoceptors = biological target: T3, α2D-adrenoceptors (Rattus norvegicus, UniProt P22909); test: inhibition of tritiated idazoxan binding to α2D-adrenoceptors in vitro; parameters: species or system rat (male Charles River CD, frontal cortical tissue); details: rat frontal cortex; for Ki: [3H]idazoxan 1 nM, 0° C., 75 min; for inhibition at 1 µM: 10^-6 M, [3H]idazoxan, read-out: % displacement at 10^-6 M, α2D
T3 sequence (P22909 1-465): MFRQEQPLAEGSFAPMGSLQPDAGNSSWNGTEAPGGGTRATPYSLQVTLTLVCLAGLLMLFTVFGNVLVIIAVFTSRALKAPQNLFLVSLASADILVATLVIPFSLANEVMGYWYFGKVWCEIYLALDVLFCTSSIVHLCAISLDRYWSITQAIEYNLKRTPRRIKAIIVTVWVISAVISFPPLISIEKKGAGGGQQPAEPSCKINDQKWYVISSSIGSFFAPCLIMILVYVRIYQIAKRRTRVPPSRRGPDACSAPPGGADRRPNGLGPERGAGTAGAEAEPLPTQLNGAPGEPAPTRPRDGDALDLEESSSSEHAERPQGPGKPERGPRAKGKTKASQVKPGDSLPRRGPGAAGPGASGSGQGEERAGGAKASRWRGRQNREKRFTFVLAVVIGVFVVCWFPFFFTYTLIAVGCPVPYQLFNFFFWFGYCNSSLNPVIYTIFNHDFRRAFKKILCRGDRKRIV

α1-adrenoceptors = test: inhibition of 7-methoxy-[3H]prazosin binding to α1-adrenoceptors in vitro; parameters: species or system rat (male Charles River CD, whole cortical tissue); details: rat whole cortex, 30 min; for Ki: 7-methoxy-[3H]prazosin 0.1 nM, 30° C.
Summary of the method: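 Male CD rat cortical membranes in 50 mM Tris-HCl pH 7.6 were incubated 30 min at 30 °C with 7-methoxy-[3H]prazosin (0.1 nM as added), with 5 μM phentolamine (as added) defining non-specific binding, then filtered and counted. Compounds were tested at 10^-6 M for % displacement or at 10^-11–10^-3 M for IC50, and Ki was derived from IC50, ligand concentration and KD.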

D2 dopamine receptors = D2 dopamine receptors (Rattus norvegicus, UniProt P61169); test: inhibition of tritiated (S)-sulpiride binding to D2 dopamine receptors in vitro; parameters: species or system rat (male Charles River CD, striatal tissue); details: rat striatum, tritiated (S)-sulpiride 1 nM, 4° C., 40 min
Sequence of D2 dopamine receptors (P61169 whole entry): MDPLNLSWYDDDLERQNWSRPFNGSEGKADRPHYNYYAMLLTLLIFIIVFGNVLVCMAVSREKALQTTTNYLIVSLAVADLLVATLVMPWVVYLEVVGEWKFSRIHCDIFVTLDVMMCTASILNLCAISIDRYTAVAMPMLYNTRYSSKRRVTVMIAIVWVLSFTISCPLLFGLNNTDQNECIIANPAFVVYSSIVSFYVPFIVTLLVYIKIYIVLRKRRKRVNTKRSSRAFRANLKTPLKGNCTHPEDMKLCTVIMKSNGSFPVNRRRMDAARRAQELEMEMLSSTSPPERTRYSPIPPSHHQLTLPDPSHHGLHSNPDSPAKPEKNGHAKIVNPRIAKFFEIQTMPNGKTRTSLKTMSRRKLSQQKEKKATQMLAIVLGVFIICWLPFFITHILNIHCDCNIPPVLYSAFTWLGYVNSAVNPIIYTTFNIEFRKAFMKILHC

SMILES | Ki (5-HT1A receptors) | inhibition at 1 µM (α2A-adrenoceptors) | Ki (α2D-adrenoceptors) | Ki (α1-adrenoceptors) | Ki (D2 dopamine receptors) | inhibition at 1 µM (α2D-adrenoceptors) | inhibition at 1 µM (5-HT1A receptors; 10^-6 M, [3H]8-OH-DPAT, read-out: % displacement at 10^-6 M, 5-HT1A) | % displacement at 10^-6 M, α1 (α1-adrenoceptors; 10^-6 M, 7-methoxy-[3H]prazosin, 1 µM) | Ki (α2A-adrenoceptors; [3H]RX 821002 0.2 nM, 0° C., 75 min)
Nc1c(CN2CCN(c3cccc4c3OCCO4)CC2)c(C2CC2)nn1Cc1ccccc1 [Example 26, 5-Amino-4-[4-(1,4-benzodioxan-5-yl)piperazin-1-ylmethyl]-1-benzyl-3-cyclopropylpyrazole] | 15 nM | 100% | 8.9 nM | 9.9 nM | 185 nM |  |  |  | 
Nc1c(CN2CCN(c3cccc4ccoc34)CC2)c(C2CC2)nn1-c1ccccc1 [Example 27, 5-Amino-4-[4-(7-benzo[b]furanyl)piperazin-1-ylmethyl]-3-cyclopropyl-1-phenylpyrazole] | 16 nM | 99% | 4.9 nM | 7.1 nM | > 500 nM |  |  |  | 
CC(C)Oc1ccccc1N1CCN(Cc2c(C3CCC3)nn(C)c2N)CC1 [Example 28, 5-Amino-3-cyclobutyl-4-[4-(2-isopropoxyphenyl)piperazin-1-ylmethyl]-1-methylpyrazole] | 40 nM | 99% |  | 27 nM | 25 nM | 93% |  |  | 
Nc1c(CN2CCN(c3cccc4c3OCCO4)CC2)c(C2CCC2)nn1-c1ccccc1 [Example 29, 5-Amino-4-[4-(1,4-benzodioxan-5-yl)piperazin-1-ylmethyl]-3-cyclobutyl-1-phenylpyrazole] | 34 nM | 100% |  | 50 nM | > 500 nM | 96% |  |  | 
Cn1nc(C2CCC2)c(CN2CCN(c3cccc4c3OCCO4)CC2)c1N [Example 30, 5-Amino-4-[4-(1,4-benzodioxan-5-yl)piperazin-1-ylmethyl]-3-cyclobutyl-1-methylpyrazole] | 18 nM | 99% |  | 64 nM | 265 nM | 94% |  |  | 
Cn1nc(C2CCCC2)c(CN2CCN(c3cccc4c3OCCO4)CC2)c1N [Example 31, 5-Amino-4-[4-(1,4-benzodioxan-5-yl)piperazin-1-ylmethyl]-3-cyclopentyl-1-methylpyrazole] | 21 nM | 95% |  | 45 nM | > 500 nM | 82% |  |  | 
N#Cc1ccc(-n2nc(C3CC3)c(CN3CCN(c4cccc5c4OCCO5)CC3)c2N)cc1 [Example 32, 4-{5-Amino-4-[4-(1,4-benzodioxan-5-yl)piperazin-1-ylmethyl]-3-cyclopropylpyrazol-1-yl}benzonitrile] | 129 nM | 91% |  | 44 nM | 320 nM | 92% |  |  | 
Nc1c(CN2CCN(c3cccc4c3OCCO4)CC2)c(C2CC2)nn1-c1ccccc1Cl [Example 33, 5-Amino-4-[4-(1,4-benzodioxan-5-yl)piperazin-1-ylmethyl]-1-(2-chlorophenyl)-3-cyclopropylpyrazole] |  | 100% |  |  | > 500 nM | 96% | 98% | 94% | 
Nc1c(CN2CCN(c3cccc4c3OCCO4)CC2)c(C2CC2)nn1-c1ccncc1 [Example 34, 5-Amino-4-[4-(1,4-benzodioxan-5-yl)piperazin-1-ylmethyl]-3-cyclopropyl-1-(4-pyridyl)pyrazole] | 118 nM | 96% |  | 102 nM | 88 nM | 87% |  |  | 
Nc1c(CN2CCN(c3cccc4c3OCCO4)CC2)c(C2CC2)nn1-c1ncccn1 [Example 35, 5-Amino-4-[4-(1,4-benzodioxan-5-yl)piperazin-1-ylmethyl]-3-cyclopropyl-1-(2-pyrimidinyl)pyrazole] | 2.3 nM | 100% |  | 82 nM | 184 nM | 96% |  |  | 
COc1ccccc1N1CCN(CC2(C)N=C(c3cccnc3)NC2=O)CC1 (stereo not shown) [Example 36, 4-[4-(2-methoxyphenyl)piperazin-1-ylmethyl]-4-methyl-2-(3-pyridyl)-2-imidazolin-5-one] | 134 nM | 66% | 127 nM | 396 nM | 297 nM |  |  |  | 
COc1ccccc1N1CCN(CC2(C)N=C(c3ccccc3)NC2=O)CC1 (stereo not shown) [Example 37, 4-[4-(2-methoxyphenyl)piperazin-1-ylmethyl]-4-methyl-2-phenyl-2-imidazolin-5-one] | 93 nM | 69% | 112 nM | 271 nM | 268 nM |  |  |  | 
CC1(CN2CCN(c3cccc4c3OCCO4)CC2)N=C(c2ccccc2)NC1=O (stereo not shown) [Example 38, 4-[4-(1,4-benzodioxan-5-yl)piperazin-1-ylmethyl]-4-methyl-2-phenyl-2-imidazolin-5-one] | 22 nM |  | 199 nM | 473 nM | 281 nM |  |  |  | 196 nM
CC1(CN2CCN(c3cccc4c3OCCO4)CC2)N=C(c2cccnc2)NC1=O (stereo not shown) [Example 40, 4-[4-(1,4-Benzodioxan-5-yl)piperazin-1-ylmethyl]-4-methyl-2-(3-pyridyl)-2-imidazolin-5-one] | 19 nM | 69% | 220 nM | > 500 nM | 315 nM |  |  |  | 
